Measured values: patent publication US8039430B2 (University of Wollongong, priority 2005, dated 2011)
Converted amounts (≈) assume the structure as drawn. Read-outs that look alike come from different tables or passages of the source.

Key:
[1] = test system: Staphylococcus aureus (ATCC 6538P); test: Antibacterial assay (MIC), Staphylococcus aureus ATCC 6538P, Luria Broth, Example 1; type: cell-based; settings: for MIC: Staphylococcus aureus, ATCC6538P, read-out: Sa (minimum inhibitory concentration)
Experimental: (§1) Antibacterial Assay Method for Staphylococcus aureus (ATCC 6538P) and Enterococcus faecium
Staphylococcus aureus (ATCC 6538P)
(§2) Compounds are accurately weighed out (between approx. 1-2 mg) and dissolved in either 10% methanol/water (v/v) or 100% DMSO to a final stock concentration of 5 mg/ml.
(§3) Compounds are then diluted 1/10 in H2O to a test conc of 500 ug/ml ready for immediate use, or storage at −20° C.
(§4) Grow up an o/n starter culture of Staphylococcus aureus and each VRE strain by diluting previous culture (stored at 4° C.) 1/1000 into −50 mls Luria Broth (LB) for S. aureus or Enterococossel Broth (EB) for the VRE strains.
(§5) Incubate o/n at 37° C.+shaking. • A glycerol stock (0.6 mls bacterial culture, 0.3 mls glycerol) of each strain is kept at −80° C. if needed. Assay Set Up:
(§6) In a 96well round bottom plate add 50 ul LB/well for the S. aureus plate and add 50 ul EB/well for the VRE plates.
(§7) Add 50 ul of compound dilution (500 ug/ml test conc) to each of three top row wells (ie: tested in triplicate) and dilute 1 in 2 from the top row to the bottom row.
(§8) After the compound dilution, add to each well 50 ul of a 1/1000 dilution of the appropriate overnight bacterial culture, either S. aureus or the different VRE strains.
(§9) Plates are incubated at 37° C. on a slowly rotating plate incubator. • test concentrations are (in ug/ml) 125, 62.5, 31.25, 15.6, 7.8, 3.9, 1.9, 0.98 • final DMSO concentration in the first row of wells of the assay is 2.5% • Vancomycin is included in the assay (in triplicate) at a starting test concentration of 5 ug/ml for S. aureus and 125 ug/ml for the VRE strains Reading Results of Assay:
(§10) After incubation for 24 hrs the plates are removed and read. Inhibition of bacterial growth is indicated by lack of bacterial pellet or a clear well. In the VRE plates bacterial growth is indicated by black coloured media (EB) as well as a bacterial pellet.
(§11) Untreated control wells are included in the assay to check they all contain bacterial pellets. Uninoculated untreated control wells are included to check they all contain clear medium.
(§12) The plates are analysed for MIC and the results tabulated.

[2] = test system: #987 E. faecium van B ST39; test: Antibacterial assay (MIC), VRE strain #987, Enterococossel Broth, Example 1; type: cell-based, Enterococcus faecium; settings: for MIC: Enterococcus faecium, read-out: 987 (minimum inhibitory concentration)
Experimental: as §1
(§13) #820 E. faecium van A ST17 #987 E. faecium van B ST39
as §2, §3, §4, §5, §6, §7, §8, §9, §10, §11, §12

[3] = test system: #449 E. faecium van B ST17; test: Antibacterial assay (MIC), VRE strain #449, Enterococossel Broth, Example 1; type: cell-based, Enterococcus faecium; settings: for MIC: Enterococcus faecium, read-out: 449 (minimum inhibitory concentration)
Experimental: as §1
(§14) VRE strains: #243 E. faecium van B ST17 #449 E. faecium van B ST17
as §2, §3, §4, §5, §6, §7, §8, §9, §10, §11, §12

[4] = test system: #243 E. faecium van B ST17; test: Antibacterial assay (MIC), VRE strain #243, Enterococossel Broth, Example 1; type: cell-based, Enterococcus faecium; settings: for MIC: Enterococcus faecium, read-out: 243 (minimum inhibitory concentration)
Experimental: as §1, §14, §2, §3, §4, §5, §6, §7, §8, §9, §10, §11, §12

[5] = test system: #820 E. faecium van A ST17; test: Antibacterial assay (MIC), VRE strain #820, Enterococossel Broth, Example 1; type: cell-based, Enterococcus faecium; settings: for MIC: Enterococcus faecium, read-out: 820 (minimum inhibitory concentration)
Experimental: as §1, §13, §2, §3, §4, §5, §6, §7, §8, §9, §10, §11, §12

[6] = Example 1 compounds, S. aureus ATCC 6538P, 24 hrs, 37° C., range if at least two of three values fell within it
[7] = Example 1 compounds, VRE #987 E. faecium van B, 24 hrs, 37° C.
[8] = Example 1 compounds, VRE #449 E. faecium van B, 24 hrs, 37° C.
[9] = Example 1 compounds, VRE #243 E. faecium van B, 24 hrs, 37° C.
[10] = Example 1 compounds, VRE #820 E. faecium van A, 24 hrs, 37° C.

Row | Structure (SMILES) | MIC [1, 6] [µg/mL] | MIC [2, 7] [µg/mL] | MIC [3, 8] [µg/mL] | MIC [4, 9] [µg/mL] | MIC [5, 10] [µg/mL] | also measured
1 | CC(C)CCOc1ccc2ccccc2c1-c1c(OCC(=O)N[C@H](CCCCN)C(=O)N[C@H](CCCNC(=N)N)C(=O)N[C@@H](CC(C)C)C(=O)NCc2ccccc2)ccc2ccccc12.Cl.Cl (atropisomer, axis not shown) [Compound 14] | 0.99 to 15.6 | > 62.6 | 15.7 to 62.5 | 15.7 to 62.5 | 15.7 to 62.5 | –
2 | C=CCOc1ccc2ccccc2c1-c1c(OCC(=O)N[C@H](CCCN)C(=O)Nc2cccc(C(=O)OC)c2)ccc2ccccc12.Cl (atropisomer, axis not shown) [Compound 41] | 0.99 to 15.6 | > 62.6 | > 62.6 | > 62.6 | > 62.6 | –
3 | NCCCC[C@@H](NC(=O)CCCOc1ccc2ccccc2c1-c1c(OCCCC(=O)N[C@H](CCCCN)C(=O)OCc2ccccn2)ccc2ccccc12)C(=O)OCc1ccccn1 [Compound 36] | – | – | – | – | – | MIC ([1]; 24 h): > 62.6 µg/mL; MIC ([2]; VRE, 24 h): > 62.6 µg/mL; MIC ([3]; VRE, 24 h): > 62.6 µg/mL; MIC ([4]; VRE, 24 h): > 62.6 µg/mL; MIC ([5]; VRE, 24 h): > 62.6 µg/mL
4 | CC(C)CCOc1ccc2ccccc2c1-c1c(OCC(=O)N[C@H](CCCCN)C(=O)N[C@H](CCCNC(=N)N)C(=O)N[C@H](C(=O)OCc2ccccc2)C(C)C)ccc2ccccc12.Cl.Cl (atropisomer, axis not shown) [Compound 2] | 0.99 to 15.6 | 15.7 to 62.5 | 15.7 to 62.5 | 15.7 to 62.5 | 15.7 to 62.5 | –
5 | C=CCOc1ccc2ccccc2c1-c1c(OCC(=O)N[C@H](CCCNC(=N)N)C(=O)Nc2cccc(C(=O)NOCc3ccccc3)c2)ccc2ccccc12.Cl (atropisomer, axis not shown) [Compound 46] | 0.99 to 15.6 | > 62.6 | > 62.6 | > 62.6 | > 62.6 | –
6 | COC(=O)[C@@H](CCCNC(=N)N)NC(=O)CCCOc1ccc2ccccc2c1-c1c(OCCCC(=O)N[C@H](CCCNC(=N)N)C(=O)OC)ccc2ccccc12 [Compound 33] | – | – | – | – | – | MIC ([1]; 24 h): 0.99 to 15.6 µg/mL (≈ 1.24 to 19.5 µM); MIC ([3]; VRE, 24 h): > 62.6 µg/mL; MIC ([5]; VRE, 24 h): > 62.6 µg/mL
7 | Cc1ccc(COC(=O)[C@H](CC(C)C)NC(=O)[C@@H](CCCNC(=N)N)NC(=O)[C@@H](CCCCN)NC(=O)COc2ccc3ccccc3c2-c2c(OCCC(C)C)ccc3ccccc23)cc1.Cl.Cl (atropisomer, axis not shown) [Compound 9] | 0.99 to 15.6 | 15.7 to 62.5 | 15.7 to 62.5 | > 62.6 | 15.7 to 62.5 | –
8 | CCC(C)[C@H](NC(=O)[C@@H](CCCNC(=N)N)NC(=O)[C@@H](CCCCN)NC(=O)COc1ccc2ccccc2c1-c1c(OCCC(C)C)ccc2ccccc12)C(=O)OCc1ccccc1.Cl.Cl (some centres unmarked) [Compound 3] | 0.99 to 15.6 | 15.7 to 62.5 | 15.7 to 62.5 | 15.7 to 62.5 | 15.7 to 62.5 | –
9 | COC(=O)[C@H]1CC=CCOc2ccc(cc2)C[C@H](NC(C)=O)C(=O)N[C@@H](CCCN=C(N)NS(=O)(=O)c2c(C)c(C)c3c(c2C)CCC(C)(C)O3)C(=O)N1 [Compound 47] | – | – | – | – | – | Sa (minimum inhibitory concentration) [1, 6]: +++ (MIC of the compound in the range of greater than or equal to 0.99 (μg/ml) and less than or equal to 15.6 (μg/ml)); 987 (minimum inhibitory concentration) [2, 7]: + (MIC of the compound in the range of greater than or equal to 62.6 (μg/ml)); 449 (minimum inhibitory concentration) [3, 8]: + (MIC of the compound in the range of greater than or equal to 62.6 (μg/ml)); 243 (minimum inhibitory concentration) [4, 9]: + (MIC of the compound in the range of greater than or equal to 62.6 (μg/ml)); 820 (minimum inhibitory concentration) [5, 10]: + (MIC of the compound in the range of greater than or equal to 62.6 (μg/ml))
10 | CC(C)CCOc1ccc2ccccc2c1-c1c(OCC(=O)N[C@H](CCCCN)C(=O)N[C@H](CCCNC(=N)N)C(=O)N[C@@H](CC(C)C)C(=O)OCc2ccccc2Cl)ccc2ccccc12.Cl.Cl (atropisomer, axis not shown) [Compound 7] | 0.99 to 15.6 | 15.7 to 62.5 | 15.7 to 62.5 | 15.7 to 62.5 | 15.7 to 62.5 | –
11 | CC(C)CCOc1ccc2ccccc2c1-c1c(OCC(=O)N[C@H](CCCCN)C(=O)N[C@H](CCCNC(=N)N)C(=O)N[C@@H](CC(C)C)C(=O)OCc2ccc([N+](=O)[O-])cc2)ccc2ccccc12.Cl.Cl (atropisomer, axis not shown) [Compound 5] | 0.99 to 15.6 | 15.7 to 62.5 | 15.7 to 62.5 | 15.7 to 62.5 | 15.7 to 62.5 | –
12 | Cl.Cl.N=C(N)NCCCC[C@@H](NC(=O)CCCOc1ccc2ccccc2c1-c1c(OCCCC(=O)N[C@H](CCCCNC(=N)N)C(=O)OCc2ccccc2)ccc2ccccc12)C(=O)OCc1ccccc1 (atropisomer, axis not shown) [Compound 39] | 0.99 to 15.6 | > 62.6 | 15.7 to 62.5 | > 62.6 | 15.7 to 62.5 | –
13 | C=CC[C@H](NC(=O)[C@@H](CCCNC(=N)N)NC(=O)[C@@H](CCCCN)NC(=O)COc1ccc2ccccc2c1-c1c(OCC(C)(C)C)ccc2ccccc12)C(=O)OCc1ccccc1 [Compound 27] | 0.99 to 15.6 (≈ 1.12 to 17.6 µM) | > 62.6 | 15.7 to 62.5 (≈ 17.7 to 70.5 µM) | 15.7 to 62.5 (≈ 17.7 to 70.5 µM) | 15.7 to 62.5 (≈ 17.7 to 70.5 µM) | –
14 | Cl.Cl.NCCCC[C@@H](NC(=O)CCCOc1ccc2ccccc2c1-c1c(OCCCC(=O)N[C@H](CCCCN)C(=O)OCc2ccccc2)ccc2ccccc12)C(=O)OCc1ccccc1 (atropisomer, axis not shown) [Compound 34] | 0.99 to 15.6 | > 62.6 | 15.7 to 62.5 | > 62.6 | 15.7 to 62.5 | –
15 | C=CCOc1ccc2ccccc2c1-c1c(OCC(=O)N[C@H](CCCCN)C(=O)N[C@H](CCCNC(=N)N)C(=O)N[C@@H](CC(C)C)C(=O)OCc2ccccc2)ccc2ccccc12.Cl.Cl (atropisomer, axis not shown) [Compound 22] | 0.99 to 15.6 | 15.7 to 62.5 | 15.7 to 62.5 | 15.7 to 62.5 | 15.7 to 62.5 | –
16 | C=CCOc1ccc2ccccc2c1-c1c(OCC(=O)N[C@H](CCCN)C(=O)Nc2cccc(C(=O)NOCc3ccccc3)c2)ccc2ccccc12 [Compound 43] | 0.99 to 15.6 (≈ 1.37 to 21.6 µM) | > 62.6 | > 62.6 | > 62.6 | 15.7 to 62.5 (≈ 21.7 to 86.5 µM) | –
17 | CC(C)CCOc1ccc2ccccc2c1-c1c(OCC(=O)N[C@H](CCCCN)C(=O)N[C@H](CCCNC(=N)N)C(=O)NC2(C(=O)OCc3ccccc3)CCCC2)ccc2ccccc12.Cl.Cl (atropisomer, axis not shown) [Compound 20] | 0.99 to 15.6 | 15.7 to 62.5 | 15.7 to 62.5 | 15.7 to 62.5 | 15.7 to 62.5 | –
18 | CC(C)CCOc1ccc2ccccc2c1-c1c(OCC(=O)N[C@H](CCCCN)C(=O)N[C@H](CCCNC(=N)N)C(=O)N[C@@H](CC(C)C)C(=O)OCc2cccc(Cl)c2)ccc2ccccc12.Cl.Cl (atropisomer, axis not shown) [Compound 6] | 0.99 to 15.6 | 15.7 to 62.5 | 15.7 to 62.5 | 15.7 to 62.5 | 15.7 to 62.5 | –
19 | C=CC[C@H](NC(=O)[C@@H](CCCNC(=N)N)NC(=O)[C@@H](CCCCN)NC(=O)COc1ccc2ccccc2c1-c1c(OCC(C)C)ccc2ccccc12)C(=O)OCc1ccccc1.Cl.Cl (atropisomer, axis not shown) [Compound 25] | 0.99 to 15.6 | 15.7 to 62.5 | 15.7 to 62.5 | 15.7 to 62.5 | 15.7 to 62.5 | –
20 | N=C(N)NCCC[C@@H](NC(=O)CCCOc1ccc2ccccc2c1-c1c(OCCCC(=O)N[C@H](CCCNC(=N)N)C(=O)OCc2ccccc2)ccc2ccccc12)C(=O)OCc1ccccc1 [Compound 38] | – | – | – | – | – | MIC ([1]; 24 h): 0.99 to 15.6 µg/mL (≈ 1.04 to 16.4 µM); MIC ([4]; VRE, 24 h): 15.7 to 62.5 µg/mL (≈ 16.5 to 65.7 µM)
